US9605064B2, “Methods and compositions for treatment of skin disorders” (AbbVie Biotechnology Ltd, priority 2006, dated 2017)
Marks after values point to notes of the source that are not given here.

Assays:
[1] = system: patients with moderate to severe chronic plaque psoriasis; assay: Physician's Global Assessment (PGA), Phase II trial with 48-week extension; format: in vivo, human; conditions: for Percentage of Patients Achieving PGA “Clear” or “Almost Clear”: modified ITT, NRI; for PGA “Clear”/“Almost Clear”: after 60 weeks of 40 mg eow
Excerpt: Efficacy outcome measures included PASI and PGA.
The Physician's Global Assessment (PGA), which was used as a clinical endpoint in the trial, was used to determine the MCID for DLQI. The PGA is a seven point scale used to measure disease severity from a physician's evaluation. Scoring under the PGA ranges from 1 (Clear) to 7 (Severe). Categories for the 7-point scale include the following: • Severe: very marked plaque elevation, scaling and/or erythema; • Moderate to severe: marked plaque elevation, scaling and/or erythema; • Moderate: moderate plaque elevation, scaling and/or erythema; • Mild to moderate: intermediate between moderate and mild; • Mild: slight plaque elevation, scaling and/or erythema; • Almost clear: intermediate between mild and clear; and • Clear: no signs of psoriasis (post-inflammatory hypopigmentation or hyperpigmentation could be present). Scoring regions were from 1 (clear) to 7 (severe). PGA was assessed at screening; baseline; week 1; week 2; week 4; week 8; and week 12/early termination; and follow up. The same investigator performed the assessment for each patient throughout the study. Statistical methods were performed according to the following summary. Analyses were performed on blinded data, combining results from all three groups. Changes in the PGA from baseline to week 12 were correlated with changes in DLQI total score.
The PGA is a seven-point scale used to measure the severity of disease at the time of the physician's evaluation. The seven disease categories are: • Severe: very marked plaque elevation, scaling, and/or erythema • Moderate to Severe: marked plaque elevation, scaling, and/or erythema • Moderate: moderate plaque elevation, scaling, and/or erythema • Mild to moderate: intermediate between moderate and mild • Mild: slight plaque elevation, scaling, and/or erythema • Almost Clear: intermediate between mild and clear • Clear: no signs of psoriasis (post-inflammatory hypopigmentation or hyperpigmentation could be present).
The PGA scale is scored from 1 (Clear) to 7 (Severe). The PGA was assessed by the investigator at screening, baseline, and Weeks 1, 2, 4, 8, 12/Early Termination, and the follow-up visit. Each study site was to make every attempt to have the same investigator perform these assessments throughout the study for each patient.
The PGA is a 7-point scale used to measure disease severity from a physician's evaluation. The categories for the 7-point scale include: Severe: very marked plaque elevation, scaling, and/or erythema; Moderate to severe: marked plaque elevation, scaling, and/or erythema; Moderate: moderate plaque elevation, scaling, and/or erythema; Mild to moderate: intermediate between moderate and mild; Mild: slight plaque elevation, scaling, and/or erythema; Almost clear: intermediate between mild and clear; and Clear: no signs of psoriasis (post-inflammatory hypopigmentation or hyperpigmentation could be present). The scoring ranges are from 1 (Clear) to 7 (Severe). PGA was assessed at screening, baseline, Week 1, Week 2, Week 4, Week 8, Week 12/early termination, and follow-up. The same investigator performed this assessment for each patient throughout the study.

[2] = system: patients with moderate to severe chronic plaque psoriasis; assay: PASI response, CHAMPION 16-week Phase III trial vs methotrexate and placebo; format: in vivo, human; conditions: for PASI 75 Response Rates, % Patients / PASI 90 Response Rates, % Patients: missing PASI = non-responder
Protocol: Analytical methods included the following: • Intention-to-treat analyses were performed for all randomized patients • Missing data were analyzed using non-responder imputation (NRI) • PASI 75 at Week 16 (primary endpoint) was analyzed using adjusted Cochran-Mantel-Haenszel test.

[3] = system: patients with moderate to severe psoriasis; assay: PASI response, open-label extension (OLE) of REVEAL; format: in vivo, human
Protocol: Laboratory parameters and adverse events were also recorded.
The REVEAL study had two independent primary endpoints. The first endpoint was the proportion of patients achieving 75 percent improvement in skin clearance after 16 weeks. The second endpoint was the proportion of patients who lost adequate response through week 52 after stopping treatment with HUMIRA at week 33. Signs of psoriasis were evaluated using the Psoriasis Area and Severity Index (PASI), among other measures. […] At week 52, the start of the OLE period, patients randomized at week 33, as well as patients originally in the placebo group at week 0, were able to enter the OLE period.

[4] = Adalimumab serum concentrations by ELISA, Phase II trial; format: in vivo, human; conditions: for steady-state concentration: 40 mg eow dosing; for mean adalimumab serum concentration: 80 mg at Week 0 and 40 mg at Week 1
[5] = system: adult patients with moderate to severe chronic plaque psoriasis; conditions: in vivo
[6] = system: patients with moderate to severe psoriasis; conditions: in vivo
[7] = system: patients with chronic plaque psoriasis; conditions: in vivo
Excerpt: This 16-week, multicenter, open-label, Phase IIIb trial enrolled patients with chronic plaque psoriasis who were having a suboptimal response to ETN (Physician's Global Assessment [PGA]≧mild with months of therapy, or ≧3 months of therapy and deterioration of efficacy), MTX (PGA≧mild with ≧4 months of therapy), or narrow-band ultraviolet B (NB-UVB) phototherapy (PGA moderate with months of therapy). […] The primary endpoint was the proportion of patients who achieved PGA of clear or minimal at week 16. A secondary endpoint was the proportion achieving ≧1 grade of PGA improvement. Safety was assessed throughout the study. Efficacy analyses were intention to treat, with nonresponder imputation used for missing data. Efficacy and safety results were analyzed overall and for each prior-treatment group.

hepatitis B virus (HBV) = conditions: cited from earlier work
[8] = Week 0 of OLE, n = 233, ITT, LOCF, 40 mg eow
[9] = Week 12 of OLE, n = 233, ITT, LOCF, 40 mg eow
[10] = Week 24 of OLE, n = 233, ITT, LOCF, 40 mg eow
[11] = after 12 months of continuous adalimumab dosing, ITT (233 patients)
[12] = after 18 months, ITT (233 patients)

Substance: Adalimumab: a human anti-TNF mAb, described in U.S. Pat. No. 6,090,382 as D2E7 (HUMIRA, Abbott Laboratories)
- Percentages of Patients with PGA “Clear” or “Almost Clear” ([1]; Week 12, 40 mg eow (Table 78)): 51%
- Percentages of Patients with PGA “Clear” or “Almost Clear” ([1]; Week 12, 40 mg weekly (Table 78)): 81%
- Percentage of Patients Achieving PGA “Clear” or “Almost Clear” ([1]; Week 12, adalimumab 40 mg eow): 49* %
- Percentage of Patients Achieving PGA “Clear” or “Almost Clear” ([1]; Week 12, adalimumab 40 mg weekly): 76* %
- Percentage of Patients Achieving PGA “Clear” or “Almost Clear” ([1]; Week 24, adalimumab 40 mg eow): 64%
- Percentage of Patients Achieving PGA “Clear” or “Almost Clear” ([1]; Week 24, adalimumab 40 mg weekly): 72%
- Percentage of Patients Achieving PGA “Clear” or “Almost Clear” ([1]; Week 24, placebo/adalimumab 40 mg eow (adalimumab from Week 12)): 45%
- Percentage of Patients Achieving PGA “Clear” or “Almost Clear” ([1]; Week 36, adalimumab 40 mg eow): 60%
- Percentage of Patients Achieving PGA “Clear” or “Almost Clear” ([1]; Week 36, adalimumab 40 mg weekly): 68%
- Percentage of Patients Achieving PGA “Clear” or “Almost Clear” ([1]; Week 36, placebo/adalimumab 40 mg eow (adalimumab from Week 12)): 51%
- Percentage of Patients Achieving PGA “Clear” or “Almost Clear” ([1]; Week 60, adalimumab 40 mg eow): 44%
- Percentage of Patients Achieving PGA “Clear” or “Almost Clear” ([1]; Week 60, adalimumab 40 mg weekly): 52%
- Percentage of Patients Achieving PGA “Clear” or “Almost Clear” ([1]; Week 60, placebo/adalimumab 40 mg eow (adalimumab from Week 12)): 45%
- PGA “Clear” or “Almost Clear” ([1]; baseline PASI ≧10 and DLQI >10, 40 mg eow, Week 12): 62 % of Patients
- PGA “Clear” or “Almost Clear” ([1]; baseline PASI ≧10 and DLQI >10, 40 mg eow, Week 24): 69 % of Patients
- PGA “Clear” or “Almost Clear” ([1]; baseline PASI ≧10 and DLQI >10, 40 mg eow, Week 36): 65 % of Patients
- PGA “Clear” or “Almost Clear” ([1]; baseline PASI ≧10 and DLQI >10, 40 mg eow, Week 60): 54 % of Patients
- PGA “Clear” or “Almost Clear” ([1]; baseline PASI ≧10 and DLQI >10, 40 mg weekly, Week 12): 70 % of Patients
- PGA “Clear” or “Almost Clear” ([1]; baseline PASI ≧10 and DLQI >10, 40 mg weekly, Week 24): 74 % of Patients
- PGA “Clear” or “Almost Clear” ([1]; baseline PASI ≧10 and DLQI >10, 40 mg weekly, Week 36): 65 % of Patients
- PGA “Clear” or “Almost Clear” ([1]; baseline PASI ≧10 and DLQI >10, 40 mg weekly, Week 60): 52 % of Patients
- PGA “Clear” or “Almost Clear” ([1]; baseline PASI ≧10 and DLQI >10, placebo/adalimumab 40 mg eow, Week 24): 33 % of Patients
- PGA “Clear” or “Almost Clear” ([1]; baseline PASI ≧10 and DLQI >10, placebo/adalimumab 40 mg eow, Week 36): 44 % of Patients
- PGA “Clear” or “Almost Clear” ([1]; baseline PASI ≧10 and DLQI >10, placebo/adalimumab 40 mg eow, Week 60): 39 % of Patients
- PGA “Clear” or “Almost Clear” ([1]; dosage escalation group (eow to 40 mg weekly, n = 30), Week 60): 20%
- PGA “Clear”/“Almost Clear” ([1]; no prior use): 44%
- PGA “Clear”/“Almost Clear” ([1]; prior biologic use): 38%
- PGA “Clear”/“Almost Clear” ([1]; prior systemic use): 47%
- mean percentage PASI improvement ([2]; Week 4): 57%
- PASI 75 Response Rates, % Patients ([2]; Week 4, ITT): 23*† %
- PASI 90 Response Rates, % Patients ([2]; Week 4, ITT): 7* %
- PASI 75 Response Rates, % Patients ([2]; Week 8, ITT): 62‡ %
- PASI 90 Response Rates, % Patients ([2]; Week 8, ITT): 27†‡ %
- PASI 75 Response Rates, % Patients ([2]; Week 12, ITT): 77‡ %
- PASI 90 Response Rates, % Patients ([2]; Week 12, ITT): 48†‡ %
- PASI 75 ([2]; Week 16, ITT, NRI): 80%
- PASI 75 Response Rates, % Patients ([2]; Week 16, ITT): 80‡ %
- PASI 90 Response Rates, % Patients ([2]; Week 16, ITT): 52†‡ %
- PASI 75 Response Rates, % Patients ([2]; Week 16, ITT, listed as ADA): 79.6% * †
- PASI 90 Response Rates, % Patients ([2]; Week 16, ITT, listed as ADA): 51.9% * †
- PASI 50 response rate ([2]; Week 16 of CHAMPION, ITT, NRI): 88.0% * †
- PASI 100 response rate ([2]; Week 16 of CHAMPION, ITT, NRI): 16.7% ‡ §
- PASI 75 response rate [3, 8]: 85%
- PASI 90 response rate [3, 8]: 84%
- PASI 100 response rate [3, 8]: 87%
- PASI 75 response rate [3, 9]: 59%
- PASI 90 response rate [3, 9]: 60%
- PASI 100 response rate [3, 9]: 63%
- PASI 75 response rate [3, 10]: 35%
- PASI 90 response rate [3, 10]: 33%
- PASI 100 response rate [3, 10]: 34%
- PASI 75 response rate [3, 11]: 85%
- PASI 90 response rate [3, 11]: 59%
- PASI 100 response rate [3, 11]: 35%
- PASI 75 response rate [3, 12]: 87%
- PASI 90 response rate [3, 12]: 63%
- PASI 100 response rate [3, 12]: 34%
- PASI 75 response rate ([3]; re-randomized to adalimumab at Wk 33, did not lose adequate response, after 24 weeks in OLE): 83%
- PASI 75 response rate ([3]; re-randomized to adalimumab at Wk 33, lost adequate response, after 24 weeks in OLE): 55%
- PASI 75 response rate ([3]; re-randomized to placebo at Wk 33, did not lose adequate response, Wk 24 of OLE adalimumab): 84%
- PASI 75 response rate ([3]; re-randomized to placebo at Wk 33, lost adequate response, Wk 24 of OLE adalimumab): 55%
- steady-state concentration ([4]; Week 11): 6.0 µg/mL
- steady-state concentration ([4]; Week 12): 6.9 µg/mL
- mean adalimumab serum concentration ([4]; Week 1): 6.0 µg/mL
- mean adalimumab serum concentration ([4]; Week 2): 8.8 µg/mL
- Infectious AEs, percentage [5]: 28.9‡ %
- Upper Respiratory Tract Infection [5]: 59 (7.2) n (%)
- Infectious AEs, Patients (%) [6]: 18%
- Serious infectious AE, Patients (%) [6]: 1%
- patients with serious infections [6]: 0.9%
- serious infection [7]: One subject
- reactivation of hepatitis B virus (HBV) (hepatitis B virus (HBV)): associated with reactivation of hepatitis B virus (HBV)
